Reference: patent US8496929B2, “Inotropic effects of antibodies on cardiac contraction” (priority 2002, dated 2013)
Entries after “also recorded” stand apart in the source; their conditions may differ.

How the values were obtained:
[1] = target: T1, digitalis-resistant rat (Na++K+)-ATPase (Rattus norvegicus, UniProt P06685); assay: (Na++K+)-ATPase activity, digitalis-resistant enzyme; type: biochemical; conditions: enzyme 100 nM; 24-400 nM test agent; 100 mM Na+, 20 mM K+, 3 mM MgATP
T1 construct: the SL vesicles (4.4 mg/ml) were titrated with 0.58 mg/ml of SDS in the presence of 2 mM ATP; from tissue; host or cells: rat heart muscle; enzyme purified from SL vesicles by SDS titration and sucrose step gradient
Experimental: (§1) Rat cardiac sarcolemmal (SL) vesicles were isolated from rat heart muscle by sucrose flotation method. The vesicles were tested with saponin and were predominately right-side-out in orientation. (Na^++K^+)-ATPase was purified as described previously (Kyte, J. (1971) Biochemistry, 246:4157-4165). Briefly, the SL vesicles (4.4 mg/ml) were titrated with 0.58 mg/ml of SDS in the presence of 2 mM ATP at 20° C. for 30 min. The SDS titrated fractions were then loaded on the top of a sucrose (W/W) step gradient constructed with 10 ml of 37.3% (bottom step), 20 ml of 28.8%, and 10 ml of 15% in a Ti 60 tube, and centrifuged at 40,000 rpm for 90 min. The fractions that contain (Na^++K^+)-ATPase (between 37.3 and 28.8% on the sucrose gradient) were carefully collected and sedimented at 40,000 rpm for 60 minutes. […]
The enzymatic activity was determined as described previously (Kyte J., et al., (1987) Biochemistry, 26:8350-8360) with modifications. […] The color was allowed to develop for 30 min at room temperature and the concentration of phosphate was then determined at 700 nm using a spectrophotometer.
To investigate whether the binding of Jianye affects (Na^++K^+)-ATPase activity, we measured (Na^++K^+)-ATPase (100 nM) activity in the presence of 100 mM Na^+, 20 mM K^+, 3 mM MgATP, and various concentrations of Jianye or ouabain. […]

[2] = target: T2, digitalis-sensitive (Na++K+)-ATPase purified from dog kidney (Canis lupus familiaris, UniProt P50997); assay: (Na++K+)-ATPase activity, digitalis-sensitive enzyme; type: biochemical; conditions: dog enzyme 16 nM; 24-400 nM
T2 construct: Highly purified dog kidney (Na^++K^+)-ATPase was a gift from Dr. Jack Kyte; tissue gift from Dr. Jack Kyte; host or cells: dog kidney
Experimental: The enzymatic activity was determined as described previously (Kyte J., et al., (1987) Biochemistry, 26:8350-8360) with modifications. Briefly, purified rat or dog (Na^++K^+)-ATPase was incubated with or without Jianye or ouabain in the presence of 100 mM Na^+ for 30 min at room temperature. The reaction was initiated by adding 3 mM MgATP and 20 mM K^+ in a final volume of 0.25 ml at 37° C. for 30 min and terminated by adding 0.75 ml quench solution and 0.025 ml developer. The color was allowed to develop for 30 min at room temperature and the concentration of phosphate was then determined at 700 nm using a spectrophotometer.
To investigate whether the binding of Jianye affects (Na^++K^+)-ATPase activity, we measured (Na^++K^+)-ATPase (100 nM) activity in the presence of 100 mM Na^+, 20 mM K^+, 3 mM MgATP, and various concentrations of Jianye or ouabain. […] To exclude the possibility that the inability of Jianye to inhibit enzymatic activity may be due to the digitalis-resistant nature of rat (Na^++K^+)-ATPase (FIG. 3), we tested the effect of Jianye on the digitalis-sensitive (Na^++K^+)-ATPase (16 nM) purified from dog kidney.

[3] = system: (Na++K+)-ATPase; assay: [3H]ouabain binding to cardiac sarcolemmal vesicles; design: species or system rat; conditions: PB added to Jianye prior to [3H]ouabain
Experimental: as §1, with “minutes. The purified enzyme was resuspended in a sucrose (250 mM)/histidinium chloride (30 mM) buffer, pH 7.2, quick-frozen in liquid nitrogen and stored at −70° C.” for “minutes.”
Cardiac SL vesicles (3 mg/ml) were incubated with or without various concentrations of Jianye antibody for 30 minutes at room temperature in a medium containing 1 mM MgATP, 100 mM NaCl, and 10 mM Tris/HCl buffer (ph 7.4). […] An aliquot (20 or 50 Ml) was taken from each sample and radioactivity determined using a β-scintillation counter. The percent of [^3H]ouabain binding to the enzyme was then calculated. […]

[4] = system: rat ventricular myocytes; assay: Cell contraction and confocal Ca2+ transients in single ventricular myocytes; type: cell-based; conditions: PB (PB95, 20 μM) mixed with Jianye prior to administration
Experimental: Ventricular cardiac myocytes were isolated from adult Sprague-Dawley rats (2-3 months old; weight 225-300 g) using standard enzymatic techniques. Briefly, following anesthesia (sodium pentobarbital, 100 mg/kg), the heart was quickly removed from the chest and aortic perfused at constant pressure (100 cmH2O) at 37° C. for 3 minutes with a Ca^2+-free bicarbonate-based buffer containing 120 mM NaCl, 5.4 mM MgSO4, 1.2 mM NaH2PO4, 5.6 mM glucose, 20mM NaHCO3, and 5 mM taurine, in the presence of O2 (95%)-CO2 (5%). The enzymatic digestion was initiated by adding collagenase (Worthington Type II, 1 mg/ml) to the perfusion solution. Calcium (50 μM) was added to the enzyme solution when the heart became swollen. […]
Myocytes were placed on an inverted microscope (Zeiss model IM-35), superfused with HEPES-buffered solution at a flow rate of 1.8 ml/min, and electrically stimulated at 0.5 Hz at 23° C. Cell length was monitored from the bright field image (650 nm to 750 nm red light illumination) by an optical edge-tracking method using a photodiode array (model 1024 SAQ, Reticon) with a 3 ms time resolution. The contraction amplitude was measured as the percentage of shortening of cell length. […]
We next determined whether the binding of Jianye to the (Na^++K^+)-ATPase affects cardiac contractility. […]

Row | Compound | inhibition of rat (Na++K+)-ATPase activity [1] | effect on dog (Na++K+)-ATPase enzymatic activity [2] | inhibition of ATP hydrolysis [2] | [3H]ouabain labeling when Jianye is saturated by peptide blocker (effect on Jianye antagonism) [3] | blocking of Jianye-induced increases in Ca2+ transients and contraction [4] | blocking of Jianye-induced increases in Ca2+ transients and contraction ([4]; listed as PB95)
1 | C[C@@H]1O[C@@H](O[C@H]2C[C@@H](O)[C@]3(CO)[C@H]4[C@H](O)C[C@]5(C)[C@@H](C6=CC(=O)OC6)CC[C@]5(O)[C@@H]4CC[C@]3(O)C2)[C@H](O)[C@H](O)[C@H]1O [ouabain] | did not inactivate | reduced the enzymatic activity | up to 47% |  |  | 
2 | KRQPRNPKTDKLVNE [PB] |  |  |  | not affected; also recorded: eliminated this antagonist effect | largely abolished; also recorded: completely abolished | largely impeded
